Measured values: patent EP0044527A1, “Substituted derivatives of benzyl triesters of cyclic adenosin-3',5'-phosphate, method for their preparation and pharmaceutical compositions containing them” (priority 1980, dated 1982)
Like-named read-outs stand apart in the source and are kept apart here.

Columns and labels:
[1] = tested on: Trachealspangen-Kette des Meerschweinchens; test: Relaxation of spontaneously contracted tracheal ring chain in vitro, relative to (-)isoprenaline maximum; assay type: cell-based, Meerschweinchen; settings: for EC50: Cavia porcellus, Dosis der halbmaximal möglichen Relaxation, Relaxation relative to (-)Isoprenalin 10^-6 Mol/l, read-out: ED50 (the source's name); for Relative Wirkungsstärke (Theophyllin = 1,00): im Vergleich zu Theophyllin
Protocol: Weiterhin wurde die relaxierende Wirkung erfindungsgemäßer Verbindungen auf die Trachealspangen-Kette des Meerschweinchens in vitro geprüft: • Vier parallele, aus jeweils 6 Einzelringen bestehende Trachealspangen-Ketten des Meerschweinchens (♂ und $, 430 - 600 g) im Organbad (5 ml, Krebs-Henseleit-Lösung mit Zusatz von Phentolamin (10^-5 Mol/l, 37°C, Vorspannung der Organe 2 g, Begasung mit Carbogen) entwickeln nach etwa 20 bis 30 Minuten eine stabile, tonische Spontankontraktur. An diesen dauerkontrahierten Organen kann unter isometrischen Meßbedingungen durch Applikation der Prüfsubstanz in kumulativhalblogarithmisch ansteigender Konzentration (z.B. 1x10-^6 + 2x-10^-6 + 7x10^-6 + 2x10^-5 usw. Mol/l) eine Relaxation herbeigeführt werden, wobei nach jeder Einzeldosis der Testsubstanz eine konstante Relaxations-Antwort abgewartet wird, bevor die nächst höhere Konzentration appliziert wird. Ober einen Zeitraum von 20 bis 30 Minuten wird somit eine vollständige Dosis-Wirkungskurve der Testsubstanz erhalten. Die jeweilige Relaxation wird als Prozentbruchteil der durch Gabe von (-)Isoprenalin (10^-6 Mol/1) maximal erreichbaren Relaxation ausgedrückt.
In Tabelle IV sind die ED50 (Dosis der halbmaximal möglichen Relaxation) und die relative Wirkungsstärke im Vergleich zu Theophyllin für erfindungsgemäße Verbindungen angegeben.

[2] = Partition coefficient octanol/buffer pH 7.4 (lg P); assay type: physicochemical; settings: Octanol/Puffer
Description: Weitere physikalische Daten finden sich in der folgenden Tabelle I, die auch zusätzliche beispielhaft hergestellte erfindungsgemäße Verbindungen und deren physikalische Daten enthält. Dabei bedeutet P den Verteilungskoeffizienten Octanol/Puffer, pH 7,4: P = [formula]

[3] = tested on: Papillarmuskeln aus dem rechten Ventrikel des Meerschweinchenherzens; test: Positive inotropic effect on isolated papillary muscle, isometric force, with or without phosphodiesterase inhibitor; assay type: cell-based, Meerschweinchen; settings: for minimal effective concentration: read-out: Schwellenkonz.
Protocol: Zur Bestimmung positiv inotroper Wirkungen wurden Papillarmuskeln aus dem rechten Ventrikel des Meerschweinchenherzens verwendet. Die adrenergen Nervenendigungen waren frei von Noradrenalin (Katecholamin-Entspeicherung durch intraperitoneale Injektion von 5 mg/kg Reserpin 24 Stunden vor Präparation der Tiere). Die Aufhängung der Muskeln erfolgte an einem induktiven Kraftaufnehmer in einer mit Sauerstoff gesättigten physiologischen Nährlösung (Volumen 50 ml). Die Kraftregistrierung erfolgte isometrisch, Kontraktionskurven wurden mittels eines Tintenschreibers aufgezeichnet und dann analysiert. Vor Zugabe der Testsubstanz wurden die Muskeln bei konstanter Reizung (Frequenz 0,2 Hz, Reizdauer 1 ms) bis zum Erreichen eines stationären Zustands ("steady state") der Kraft in der Nährlösung äquilibriert. Die Konzentration der Testsubstanz wurde dann erhöht, wenn die Kraft innerhalb von 10 min nicht weiter zunahm.
In der folgenden Tabelle II sind die Konzentrationen der einzelnen Testsubstanzen aufgetragen, bei denen der positiv inotrope Effekt gerade erkennbar war (Schwellenkonzentration) oder 50 % der maximalen Kraftzunahme erreichte (EC50). Diese Werte wurden im unteren Teil der Tabelle denen bereits bekannter Testsubstanzen gegenübergestellt. Weiterhin werden Schwellenkonzentrationen und EC50-Werte für die aufgeführten Testsubstanzen in Anwesenheit des Phosphodiesterase-Hemmstoffs 1-Methyl-3-isobutylxanthin (IBMX) (2 x 10^-5 Mol/l) angegeben. Es resultiert eine Verschiebung zu 30 - 40-fach niedrigeren Konzentrationen im Vergleich zu den Werten ohne Phophodiesterase-Hemmstoff. Ein ähnlicher Synergismus wurde auch mit Papaverin (1 x 10^-5 Mol/l) und mit Theophyllin (3 x 10-^4 Mol/1) beobachtet.

[4] = tested on: isolierte Trachealstreifen des Meerschweinchens; test: Relaxation of isolated tracheal strips (smooth muscle of the respiratory tract); assay type: cell-based, Meerschweinchen; settings: Cavia porcellus, read-out: Abnahme der Muskelspannung (T) in % des Kontrollwertes
Description: Zur Bestimmung der erschlaffenden Wirkung von 8-CH3S-cAMP-OCH2C6H5 (Verbindung 2) auf die glatte Muskulatur des Respirationstraktes wurden isolierte Trachealstreifen des Meerschweinchens verwendet. Aufhängung der Präparate erfolgte wie bereits beschrieben. Nach Vorgabe einer geeigneten Testspannung (0,8 g) wurde die erschlaffende Wirkung der Testsubstanz in Abhängigkeit von der Konzentration getestet. Nach Auswaschen der Testsubstanz wurde der Versuch mit einem bereits bekannten cAMP-Derivat (Dibutyryl-cAMP, Vergleichsverbindung 1) wiederholt.

[5] = tested on: isoliertes Meerschweinchen-Myokard; settings: Stand der Technik; cited from earlier work
[6] = pH 7, Diastereomerengemisch, pH 7,4, read-out: lg P Gemisch
[7] = pH 7, Konfig. ax, pH 7,4, read-out: lg P
[8] = pH 7, Konfig. äq, pH 7,4, read-out: lg P
[9] = 50 % der maximalen Kraftzunahme, in Anwesenheit von IBMX (2 x 10^-5 Mol/l), read-out: EC50 + 20 µMol IBMX
[10] = 50 % der maximalen Kraftzunahme, ohne IBMX, read-out: EC50
[11] = positiv inotroper Effekt gerade erkennbar, in Anwesenheit von IBMX (2 x 10^-5 Mol/l)
[12] = positiv inotroper Effekt gerade erkennbar, ohne IBMX
[13] = pH 7, Vergleichsverbindungen, pH 7,4, read-out: lg P - Werte

SMILES | logD [2, 6] | logD [2, 7] | logD [2, 8] | EC50 [3, 9] [µM] | EC50 [3, 10] [µM] | Schwellenkonz. + 20 µMol IBMX [3, 11] [mol/L] | minimal effective concentration [3, 12] [µM] | also measured
Cn1c(=O)c2[nH]cnc2n(C)c1=O [Theophyllin, reference compound] | – | – | – | – | – | – | – | EC50 [1]: 130 µM; Relative Wirkungsstärke (Theophyllin = 1,00) [1]: 1,00
Nc1ncnc2c1nc(Br)n2[C@@H]1O[C@@H]2COP(=O)(OCc3ccccc3)O[C@H]2[C@H]1O (some centres unmarked) [Verbindung 1, 8-Brom-adenosin-3',5'-monophosphorsäurebenzylester] | 1.58 | 1.61 | 1.54 | 1.5 | 10 | 3e-07 | 3 | EC50 [1]: 7 µM; Relative Wirkungsstärke (Theophyllin = 1,00) [1]: 18,5
CSc1nc2c(N)ncnc2n1[C@@H]1O[C@@H]2COP(=O)(OCc3ccccc3)O[C@H]2[C@H]1O (some centres unmarked) [Verbindung 2, 8-Methylthio-adenosin-3',5^1-monophosphorsäurebenzylester] | 1.62 | 1.55 | 1.7 | – | – | 1e-07 | – | EC50 [3]: 10 µM; EC50 ([3]; read-out: EC50 + 20 µMol IBMX): 0.45 µM; minimal effective concentration [3]: 3 µM; inhibition at 1 µM [4]: 20%; inhibition at 3 µM [4]: 85%; inhibition at 10 µM [4]: 100%; inhibition at 30 µM [4]: 100%
Nc1ncnc2c1nc(SCc1ccccc1)n2[C@@H]1O[C@@H]2COP(=O)(OCc3ccccc3)O[C@H]2[C@H]1O (some centres unmarked) [Verbindung 3, 8-Benzylthioadenosin-3',5'-monophosphorsäurebenzyltriester] | 1.92 | 1.96 | 1.88 | 0.6 | 20 | 1e-07 | 10 | –
Nc1ncnc2c1nc([Se]Cc1ccccc1)n2[C@@H]1O[C@@H]2COP(=O)(OCc3ccccc3)O[C@H]2[C@H]1O (some centres unmarked) [Verbindung 4, 8-Benzylseleno-adenosin-3',5'-monophosphorsäurebenzylester] | 1.67 | 1.7 | 1.64 | – | – | 1e-07 | – | EC50 [3]: 10 µM; EC50 ([3]; read-out: EC50 + 20 µMol IBMX): 0.55 µM; minimal effective concentration [3]: 3 µM
Nc1ncnc2c1nc(Sc1ccc(Cl)cc1)n2[C@@H]1O[C@@H]2COP(=O)(OCc3ccccc3)O[C@H]2[C@H]1O (some centres unmarked) [Verbindung 5, 8-(4-Chlor-phenylthio)-adenosin-3',5'-monophosphorsäurebenzylester] | 2.24 | – | – | 0.3 | 2 | 3e-08 | 0.1 | EC50 [1]: 38 µM; Relative Wirkungsstärke (Theophyllin = 1,00) [1]: 3,4
Nc1ncnc2c1nc(NCc1ccccc1)n2[C@@H]1O[C@@H]2COP(=O)(OCc3ccccc3)O[C@H]2[C@H]1O (some centres unmarked) [Verbindung 6, 8-Benzylamino-adenosin-3^1,5^1-monophosphorsäurebenzylester] | 1.97 | – | – | 20 | 40 | 5e-06 | 10 | –
CN(Cc1ccccc1)c1nc2c(N)ncnc2n1[C@@H]1O[C@@H]2COP(=O)(OCc3ccccc3)O[C@H]2[C@H]1O (some centres unmarked) [Verbindung 7, 8-N-Benzyl-N-methylamino-adenosin-3',5'-monophosphorsäurebenzylester] | 2.29 | – | – | – | – | – | – | –
CCCC(=O)Nc1ncnc2c1ncn2[C@@H]1O[C@@H]2COP(=O)(O)O[C@H]2[C@H]1OC(=O)CCC [Vergleichs-verbindung 1, Dibutyryl-cAMP, reference compound] | – | – | – | 300 | 1000 | 0.0001 | 300 | logD [2, 13]: -1.1; inhibition at 1000 µM ([4]; 1 x 10^-3 Mol/l): 75%; inhibition at 100 µM ([4]; 1 x 10^-4 Mol/l): 8%; inhibition at 300 µM ([4]; 3 x 10^-4 Mol/l): 16%; inotrope Wirkung (Nebenwirkung) [5]: anfangs negativ inotrope Wirkungen
Nc1ncnc2c1nc(SCc1ccccc1)n2[C@@H]1O[C@@H]2COP(=O)(O)O[C@H]2[C@H]1O [compound 2, 8-Benzylthioadenosin-3',5'-phosphorsäure, reference compound] | – | – | – | 150 | 800 | 1e-05 | 100 | logD [2, 13]: -1.15
Nc1ncnc2c1ncn2[C@@H]1O[C@@H]2COP(=O)(OCc3ccccc3)O[C@H]2[C@H]1O (some centres unmarked) [compound 3, Adenosin-3',5'-phosphorsäurebenzylester, reference compound] | – | – | – | 60 | 250 | 1e-05 | 100 | logD [2, 13]: 1.1
